Source: patent US11919902B2, “Aryl-bipyridine amine derivatives as phosphatidylinositol phosphate kinase inhibitors” (HiberCell, Inc., priority 2017, dated 2024)

Assays:
GST tagged PIP4KtypeIIA = target: T1, GST tagged PIP4KtypeIIA (Homo sapiens, UniProt P48426); assay: ADP-glo kinase assay PIP4K 2A (PIP4KtypeIIA inhibition assay); assay type: biochemical; conditions: Table 3; compounds listed under IC50 range headings; 10 uM ATP, 0.5 nM PIP4KIIA
T1 construct: made in house; host or cells: E. coli
T1 sequence (P48426 1-406): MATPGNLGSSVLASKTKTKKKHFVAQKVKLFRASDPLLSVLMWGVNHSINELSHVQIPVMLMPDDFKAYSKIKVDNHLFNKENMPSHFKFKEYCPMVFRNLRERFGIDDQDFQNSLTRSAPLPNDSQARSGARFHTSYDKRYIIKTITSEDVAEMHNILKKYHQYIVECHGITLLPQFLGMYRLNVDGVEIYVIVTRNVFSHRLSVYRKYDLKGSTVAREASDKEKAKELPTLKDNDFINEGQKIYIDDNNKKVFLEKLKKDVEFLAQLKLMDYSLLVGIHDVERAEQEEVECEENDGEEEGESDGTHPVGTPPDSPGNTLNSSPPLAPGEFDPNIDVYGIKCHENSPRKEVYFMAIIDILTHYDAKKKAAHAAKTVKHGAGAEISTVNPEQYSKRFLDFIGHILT
Procedure, shortened: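 Read-out was ADP-Glo luminescence converted to μM ADP, with IC50 plotted as % of no-inhibitor activity against log concentration. Reactions contained 10 μM ATP, 80 μM PI5P with DOPE carrier, and 0.5 nM GST-tagged PIP4KIIA (E. coli-expressed) in pH 7.3 HEPES/MgCl2 buffer with 5% DMSO. Enzyme and compound (≤4.8 μM) were preincubated 1 h at 27 °C before the 1 h reaction.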

[1] = target: T2, PIP4K2A (full length protein, SignalChem) (Homo sapiens, UniProt P48426); assay: Kinase Assay PIP4K2 A (Sprint); ADP-Glo biochemical assay; conditions: Table 2; compounds listed under IC50 range headings
T2 construct: 4 nM PIP4K2A (full length protein, SignalChem); purchased SignalChem
T2 sequence (P48426 1-406): T1 sequence (P48426 1-406)
Procedure, shortened: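 ADP-Glo luminescence detected ADP after a 1 h RT reaction started with 60 μM ATP solution. Before that, full-length PIP4K2A (4 nM in mix) with 100 μM PI(5)P diC8 was pre-incubated 15 min with compounds in MOPS buffer pH 7.2, 25 mM MgCl2, 0.005% Tween 20. IC50 derived from % inhibition relative to DMSO over 10 three-fold concentrations.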

GST tagged PIP4KtypeIIB = target: T3, GST tagged PIP4KtypeIIB (Homo sapiens, UniProt P78356); assay: Trans-FI P kinase assay PIP4K2B (PIP4KtypeIIB inhibition assay); assay type: biochemical; conditions: Table 4; compounds listed under IC50 range headings; 100 uM GTP, 5 nM PIP4KIIB; read-out: Trans-FI P kinase assays: PIP4K2B IC50
T3 construct: made in house; host or cells: E. coli
T3 sequence (P78356 1-416): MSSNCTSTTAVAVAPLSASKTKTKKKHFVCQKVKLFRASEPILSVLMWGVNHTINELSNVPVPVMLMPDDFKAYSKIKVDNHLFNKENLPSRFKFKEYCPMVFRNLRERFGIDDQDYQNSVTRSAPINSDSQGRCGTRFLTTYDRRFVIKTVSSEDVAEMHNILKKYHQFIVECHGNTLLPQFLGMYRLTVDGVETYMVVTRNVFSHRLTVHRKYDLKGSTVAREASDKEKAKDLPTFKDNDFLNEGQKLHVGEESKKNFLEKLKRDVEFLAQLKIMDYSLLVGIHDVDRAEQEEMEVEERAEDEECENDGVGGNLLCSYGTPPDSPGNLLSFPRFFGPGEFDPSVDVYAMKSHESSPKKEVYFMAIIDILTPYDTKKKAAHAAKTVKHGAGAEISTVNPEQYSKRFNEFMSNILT
Procedure, shortened: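 Transcreener FI fluorescence, converted to GDP by calibration, tracked product from 5 nM E. coli-expressed GST-PIP4KIIB acting on 80 uM PI5P (DOPE carrier) with 100 uM GTP. Compound (top 4.8 uM final, 5% DMSO) was preincubated 1 h at 27 C before the 2 h reaction; IC50 fitted from residual activity.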

| Structure (SMILES) | IC50 (GST tagged PIP4KtypeIIA) [nM] | IC50 [1] [nM] | IC50 (GST tagged PIP4KtypeIIB) [nM] |
| --- | --- | --- | --- |
| O=C1CCCN1c1ccc(-c2cncc(-c3c(OC4CCOCC4)cnc4[nH]ccc34)c2)cc1 [Example 268, 1-(4-(5-(5-((tetrahydro-2H-pyran-4-yl)oxy)-1H-pyrrolo[2,3-b]pyridin-4-yl)pyridin-3-yl)phenyl)pyrrolidin-2-one] | > 5000 | 1000 to 2500 | 1000 to 2500 |
| Cn1ccc(-c2cncc(-c3ccc(N4CCCC4=O)cc3)c2)cc1=O [Example 33, 1′-methyl-5-(4-(2-oxopyrrolidin-1-yl)phenyl)-[3,4′-bipyridin]-2′(1′H)-one] | > 5000 | < 5000 | > 5000 |
| CN(C)C(=O)c1ccc(-c2cc(-c3ccnc(CNC(=O)c4ccc(N)cc4)c3)cnc2N)nc1 [Example 188, 2′-amino-2″-((4-aminobenzamido)methyl)-N,N-dimethyl-[2,3′:5′,4″-terpyridine]-5-carboxamide] | > 5000 | 1000 to 2500 | 1000 to 2500 |
| CN(C)C(=O)c1ccc(-c2cncc(-c3ccnc4c3ccn4C)c2)cc1 [Example 5, N,N-dimethyl-4-(5-(1-methyl-1H-pyrrolo[2,3-b]pyridin-4-yl)pyridin-3-yl)benzamide] | 2500 to 5000 | 100 to 1000 | 1000 to 2500 |
| CN(C)C(=O)c1ccc(-c2cncc(-c3ccnc(C(=O)N(C)C)c3)c2)cc1 [Example 9, 5-(4-(dimethylcarbamoyl)phenyl)-N,N-dimethyl-[3,4′-bipyridine]-2′-carboxamide] | > 5000 | < 5000 | > 5000 |
| CN(C[C@H]1CC[C@H](N)CC1)C(=O)c1ccc(-c2cncc(-c3ccncc3)c2)cc1 [Example 181, 4-([3,4′-bipyridin]-5-yl)-N-(((1r,4r)-4-aminocyclohexyl)methyl)-N-methylbenzamide] | > 5000 | < 5000 | > 5000 |
| Nc1ncc(-c2ccnc3[nH]c(C(=O)NCC(F)(F)F)cc23)cc1-c1ccc(C(=O)NCC(F)(F)F)cn1 [Example 139, 4-(2′-amino-5-((2,2,2-trifluoroethyl)carbamoyl)-[2,3′-bipyridin]-5′-yl)-N-(2,2,2-trifluoroethyl)-1H-pyrrolo[2,3-b]pyridine-2-carboxamide] | > 5000 | < 5000 | 2500 to 5000 |
| CN(C)C(=O)c1ccc(-c2cc(-c3ccnc4ccccc34)cnc2N)nc1 [Example 20, 2′-amino-N,N-dimethyl-5′-(quinolin-4-yl)-[2,3′-bipyridine]-5-carboxamide] | 1000 to 2500 | 100 to 1000 | 100 to 1000 |
| CN(C)C(=O)c1ccc(-c2cncc(-c3ccnc4ccncc34)c2)cc1 [Example 7, 4-(5-(1,6-naphthyridin-4-yl)pyridin-3-yl)-N,N-dimethylbenzamide] | > 5000 | 2500 to 5000 | > 5000 |
| CC(O)c1cnc2[nH]cc(-c3cncc(-c4ccc(N5CCCC5=O)cc4)c3)c2c1 (stereo not drawn) [Example 48, 1-(4-(5-(5-(1-hydroxyethyl)-1H-pyrrolo[2,3-b]pyridin-3-yl)pyridin-3-yl)phenyl)pyrrolidin-2-one] | 100 to 1000 | 5 to 100 | 10 to 100 |
| CN(C)C(=O)c1cnc2n[nH]c(-c3cncc(-c4ccc(N5CCCC5=O)cc4)c3)c2c1 [Example 227, N,N-dimethyl-3-(5-(4-(2-oxopyrrolidin-1-yl)phenyl)pyridin-3-yl)-2H-pyrazolo[3,4-b]pyridine-5-carboxamide] | 100 to 1000 | 5 to 100 | 100 to 1000 |
| CN(C)C(=O)c1ccc(-c2cncc(-c3ccnc4[nH]ccc34)c2)cc1 [Example 2, 4-(5-(1H-pyrrolo[2,3-b]pyridin-4-yl)pyridin-3-yl)-N,N-dimethylbenzamide] | 100 to 1000 | 100 to 1000 | 100 to 1000 |

Results, then the molecule that gave them:

| IC50 (GST tagged PIP4KtypeIIA) [nM] | IC50 [1] [nM] | IC50 (GST tagged PIP4KtypeIIB) [nM] | Structure (SMILES) |
| --- | --- | --- | --- |
| 100 to 1000 | 5 to 100 | 100 to 1000 | O=C1CCCN1c1ccc(-c2cncc(-c3ccnc4[nH]ncc34)c2)cc1 [Example 215, 1-(4-(5-(2H-pyrazolo[3,4-b]pyridin-4-yl)pyridin-3-yl)phenyl)pyrrolidin-2-one] |
| 100 to 1000 | 100 to 1000 | 10 to 100 | CN1CCn2c(cc3c(-c4cncc(-c5ccc(C(=O)N6CCCCC6)cc5)c4)ccnc32)C1=O [Example 354, 7-methyl-4-(5-(4-(piperidine-1-carbonyl)phenyl)pyridin-3-yl)-8,9-dihydropyrido[3′,2′:4,5]pyrrolo[1,2-a]pyrazin-6(7H)-one] |
| 100 to 1000 | 100 to 1000 | 100 to 1000 | CN(C)C(=O)c1ccc(-c2cc(-c3ccnc4[nH]c(C(=O)N5CCNCC5)cc34)cnc2N)nc1 [Example 140, 2′-amino-N,N-dimethyl-5′-(2-(piperazine-1-carbonyl)-1H-pyrrolo[2,3-b]pyridin-4-yl)-[2,3′-bipyridine]-5-carboxamide] |
| 100 to 1000 | 5 to 100 | 1000 to 2500 | CC(O)c1cnc2c(c1)c(-c1cncc(-c3ccc(N4CCCC4=O)cc3)c1)cn2C (stereo not drawn) [Example 62, 1-(4-(5-(5-(1-hydroxyethyl)-1-methyl-1H-pyrrolo[2,3-b]pyridin-3-yl)pyridin-3-yl)phenyl)pyrrolidin-2-one] |
| 100 to 1000 | 100 to 1000 | 10 to 100 | COCCNC(=O)c1cc2c(-c3cnc(N)c(-c4ccc(C(=O)N(C)C)cn4)c3)ccnc2[nH]1 [Example 132, 4-(2′-amino-5-(dimethylcarbamoyl)-[2,3′-bipyridin]-5′-yl)-N-(2-methoxyethyl)-1H-pyrrolo[2,3-b]pyridine-2-carboxamide] |
| 100 to 1000 | 5 to 100 | 100 to 1000 | O=C1CCCN1c1ccc(-c2cncc(-c3cn(Cc4ccccc4)c(=O)c4[nH]ncc34)c2)cc1 [Example 67, 6-benzyl-4-(5-(4-(2-oxopyrrolidin-1-yl)phenyl)pyridin-3-yl)-1,6-dihydro-7H-pyrazolo[3,4-c]pyridin-7-one] |
| 100 to 1000 | 5 to 100 | 100 to 1000 | CN(C)C(=O)c1cnc2c(c1)c(-c1cncc(-c3ccc(N4CCCC4=O)cc3)c1)cn2C [Example 61, N,N,1-trimethyl-3-(5-(4-(2-oxopyrrolidin-1-yl)phenyl)pyridin-3-yl)-1H-pyrrolo[2,3-b]pyridine-5-carboxamide] |
| 10 to 100 | 5 to 100 | 1 to 10 | COCCNC(=O)c1cc2c(-c3cnc(N)c(-c4ccc(N5CCCC5=O)cc4)c3)ccnc2o1 [Example 90, 4-(6-amino-5-(4-(2-oxopyrrolidin-1-yl)phenyl)pyridin-3-yl)-N-(2-methoxyethyl)furo[2,3-b]pyridine-2-carboxamide] |
| 100 to 1000 | 5 to 100 | 10 to 100 | CN1CCn2c(cc3c(-c4cncc(-c5ccc(N6CCCC6=O)cc5)c4)ccnc32)C1=O [Example 46, 7-methyl-4-(5-(4-(2-oxopyrrolidin-1-yl)phenyl)pyridin-3-yl)-8,9-dihydropyrido[3′,2′:4,5]pyrrolo[1,2-a]pyrazin-6(7H)-one] |
| 100 to 1000 | 100 to 1000 | 100 to 1000 | O=C1CCCN1c1ccc(-c2cncc(-n3cnc4ccccc43)c2)cc1 [Example 177, 1-(4-(5-(1H-benzo[d]imidazol-1-yl)pyridin-3-yl)phenyl)pyrrolidin-2-one] |
| 1 to 10 | 100 to 1000 | 2500 to 5000 | CN(C)C(=O)c1ccc(-c2cc(-c3cnc4c(c3)c(-c3cncs3)cn4C)cnc2N)nc1 [Example 125, 2′-amino-N,N-dimethyl-5′-(1-methyl-3-(thiazol-5-yl)-1H-pyrrolo[2,3-b]pyridin-5-yl)-[2,3′-bipyridine]-5-carboxamide] |
